Data taken from patent US20040137023A1, “5-Cholesten-3beta, 25-diol-7-one, esters and ethers thereof, particularly for the treatment of dry skin and scalp” (L'OREAL, priority 2002, published 2004).

Test system: immortalized human sebocytes derived from the SZ95 line
Experiment: Lipogenesis in immortalized human sebocytes in culture (Nile red fluorescence, neutral lipids)
Format: cell-based
Conditions: for LIPID VARIATION (relative to the control): treatment for 2 days, 0.1% DMSO, Nile red 485-540 nm
Procedure: 5-Cholesten-3β,25-diol-7-one was tested, in comparison with 7-oxocholesterol and 25-hydroxy-cholesterol, on a model of immortalized human sebocytes in culture, derived from the SZ95 line described in Zouboulis, C. C., Seltmann, H., Neitzel, H. and Orfanos, C. E., Establishment and Characterization of an Immortalized Human Sebaceous Gland Cell Line, J. Invest. Dermatol., 113, 1011-1020 (1999).
The test consisted in measuring the amount of lipids produced by the sebocytes of the line (at confluence), in the presence or absence of active agents diluted in DMSO, such that the final amount of DMSO in the culture medium is 0.1%. After treatment for 2 days, the adherent cells are treated with Nile red (1 μg/ml). The lipid content is then quantified by measuring the fluorescence of the dye (excitation/emission pair: 485-540 nm for the neutral lipids).
The tests are performed in sixplicate and the experiment is repeated four times.
In parallel, proliferation tests (MUH) and cell viability tests (LDH) make it possible to check that the effects obtained are not associated with an appreciable change in these biological parameters.

Row | SMILES | LIPID VARIATION (relative to the control) (test compound 10^−4 M) | LIPID VARIATION (relative to the control) (test compound 10^−5 M) | increase in the lipid content of the sebum (10^−5 M, same test)
1 | C[C@H](CCCC(C)(C)O)C1CCC2C3C(=O)C=C4C[C@@H](O)CC[C@]4(C)C3CC[C@@]21C (stereo partly drawn) [5-Cholesten-3β,25-diol-7-one] | +90% | +85% | –
2 | CC(C)CCC[C@@H](C)[C@H]1CC[C@H]2[C@@H]3C(=O)C=C4C[C@@H](O)CC[C@]4(C)[C@H]3CC[C@]12C [7-Oxocholesterol, 7-oxocholesterol] | +20% | – | –
3 | C[C@H](CCCC(C)(C)O)[C@H]1CC[C@H]2[C@@H]3CC=C4C[C@@H](O)CC[C@]4(C)[C@H]3CC[C@]12C [25-OH cholesterol, 25-hydroxy-cholesterol] | 0% | – | –
4 | C[C@]12CC[C@H](O)CC1=CC[C@@H]1[C@@H]2CC[C@]2(C)C(=O)CC[C@@H]12 [DHEA] | – | – | 13%
